# Test results from PMC8213057, “Targeting ALK2: An Open Science Approach to Developing Therapeutics for the Treatment of Diffuse Intrinsic Pontine Glioma” (Journal of Medicinal Chemistry, 2020).
# Tests used:
# [1] = target: T1, PBK/TOPK (Homo sapiens, UniProt Q96KB5); assay: biochemical; conditions: read-out: % enzyme activity, 1 μM; Run 1, Run 2
# T1 sequence (Q96KB5 1-322): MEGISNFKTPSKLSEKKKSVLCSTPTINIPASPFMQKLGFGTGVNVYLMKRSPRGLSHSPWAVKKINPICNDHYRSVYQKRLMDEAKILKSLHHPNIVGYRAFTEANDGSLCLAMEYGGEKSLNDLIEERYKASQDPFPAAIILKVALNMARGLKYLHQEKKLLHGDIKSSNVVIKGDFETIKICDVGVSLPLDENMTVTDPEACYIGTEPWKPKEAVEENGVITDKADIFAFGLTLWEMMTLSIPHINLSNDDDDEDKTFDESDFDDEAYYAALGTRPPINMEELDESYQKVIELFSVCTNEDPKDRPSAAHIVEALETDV
# [2] = target: T2, CHK1 (Homo sapiens, UniProt O14757); conditions: 1 μM; Run 1, Run 2
# T2 sequence (O14757 1-476): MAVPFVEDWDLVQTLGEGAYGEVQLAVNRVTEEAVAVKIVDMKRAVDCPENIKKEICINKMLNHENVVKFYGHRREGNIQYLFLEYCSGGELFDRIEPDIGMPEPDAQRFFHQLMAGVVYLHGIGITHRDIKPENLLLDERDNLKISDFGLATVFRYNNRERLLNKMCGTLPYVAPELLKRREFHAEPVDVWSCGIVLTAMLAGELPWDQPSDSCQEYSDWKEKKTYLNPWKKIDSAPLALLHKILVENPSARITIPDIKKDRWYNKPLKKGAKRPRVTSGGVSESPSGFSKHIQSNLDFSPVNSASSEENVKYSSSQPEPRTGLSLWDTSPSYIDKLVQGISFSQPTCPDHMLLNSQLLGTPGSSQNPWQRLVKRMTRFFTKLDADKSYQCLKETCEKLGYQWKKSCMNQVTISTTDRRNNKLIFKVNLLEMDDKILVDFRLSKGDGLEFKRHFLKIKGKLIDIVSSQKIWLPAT
# [3] = target: PAK2 (Homo sapiens, UniProt Q13177); conditions: 1 μM; Run 1, Run 2
# [4] = target: SSTK/TSSK6 (Homo sapiens, UniProt Q9BXA6); assay: biochemical; conditions: read-out: % enzyme activity, 1 μM; Run 1, Run 2
# [5] = target: T3, GRK2 (Homo sapiens, UniProt P25098); assay: biochemical; conditions: read-out: % enzyme activity, 1 μM; Run 1, Run 2
# T3 sequence (P25098 1-689): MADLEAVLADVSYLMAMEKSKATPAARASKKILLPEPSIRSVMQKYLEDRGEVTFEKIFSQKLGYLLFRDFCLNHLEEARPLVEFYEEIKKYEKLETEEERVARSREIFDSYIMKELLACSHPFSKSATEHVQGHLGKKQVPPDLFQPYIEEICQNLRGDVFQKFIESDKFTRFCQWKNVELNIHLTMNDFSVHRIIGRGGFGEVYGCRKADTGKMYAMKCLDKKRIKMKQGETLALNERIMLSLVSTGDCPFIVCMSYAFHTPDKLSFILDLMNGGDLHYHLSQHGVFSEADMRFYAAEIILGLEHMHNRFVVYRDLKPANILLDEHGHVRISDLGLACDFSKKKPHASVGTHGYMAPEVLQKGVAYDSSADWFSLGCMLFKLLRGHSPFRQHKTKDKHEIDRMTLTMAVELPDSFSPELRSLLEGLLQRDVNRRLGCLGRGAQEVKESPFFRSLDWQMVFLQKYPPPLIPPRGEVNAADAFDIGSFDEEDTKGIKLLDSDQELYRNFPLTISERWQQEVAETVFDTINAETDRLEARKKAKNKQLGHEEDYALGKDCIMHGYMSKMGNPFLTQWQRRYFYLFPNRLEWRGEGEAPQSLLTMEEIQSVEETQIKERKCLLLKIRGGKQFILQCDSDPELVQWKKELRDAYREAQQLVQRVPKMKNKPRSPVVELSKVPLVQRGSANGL
# [6] = target: ERK1 (Homo sapiens, UniProt P27361); conditions: 1 μM; Run 1, Run 2
# [7] = target: CDK9/cyclin T2 (Homo sapiens, UniProt P50750); conditions: 1 μM; Run 1, Run 2
# [8] = target: MSK1/RPS6KA5 (Homo sapiens, UniProt O75582); assay: biochemical; conditions: read-out: % enzyme activity, 1 μM; Run 1, Run 2
# [9] = target: T4, ARK5/NUAK1 (Homo sapiens, UniProt O60285); conditions: 1 μM; Run 1, Run 2
# T4 sequence (O60285 1-661): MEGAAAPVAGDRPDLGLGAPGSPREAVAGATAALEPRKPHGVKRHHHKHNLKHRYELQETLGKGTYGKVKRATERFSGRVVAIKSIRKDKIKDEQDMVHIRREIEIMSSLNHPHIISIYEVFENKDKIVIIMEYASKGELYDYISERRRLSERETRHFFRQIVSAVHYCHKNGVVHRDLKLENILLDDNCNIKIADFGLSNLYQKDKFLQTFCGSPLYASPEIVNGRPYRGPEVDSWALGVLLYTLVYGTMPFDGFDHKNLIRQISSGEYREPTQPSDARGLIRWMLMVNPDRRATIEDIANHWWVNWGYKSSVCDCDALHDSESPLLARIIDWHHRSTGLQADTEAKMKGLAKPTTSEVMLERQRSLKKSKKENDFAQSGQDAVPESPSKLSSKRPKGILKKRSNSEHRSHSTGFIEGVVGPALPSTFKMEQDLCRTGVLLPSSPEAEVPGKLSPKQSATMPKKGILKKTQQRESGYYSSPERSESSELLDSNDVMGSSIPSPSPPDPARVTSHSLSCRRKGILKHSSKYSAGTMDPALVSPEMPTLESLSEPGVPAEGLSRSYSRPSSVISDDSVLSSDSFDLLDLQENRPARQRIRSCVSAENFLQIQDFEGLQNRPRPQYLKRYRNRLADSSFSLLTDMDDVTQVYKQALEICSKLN
# [10] = target: PIM2 (Homo sapiens, UniProt Q9P1W9); conditions: 1 μM; Run 1, Run 2
# Chain of PIM2 (Q9P1W9 whole entry): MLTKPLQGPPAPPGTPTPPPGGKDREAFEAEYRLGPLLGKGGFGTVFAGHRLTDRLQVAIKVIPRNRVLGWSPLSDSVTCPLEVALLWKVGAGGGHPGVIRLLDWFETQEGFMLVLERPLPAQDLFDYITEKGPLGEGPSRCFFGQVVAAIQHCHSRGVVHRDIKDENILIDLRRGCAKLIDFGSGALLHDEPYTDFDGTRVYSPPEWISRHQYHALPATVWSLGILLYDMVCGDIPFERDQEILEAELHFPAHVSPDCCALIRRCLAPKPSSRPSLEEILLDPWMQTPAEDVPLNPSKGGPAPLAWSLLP
# Chain of PAK2 (Q13177 whole entry): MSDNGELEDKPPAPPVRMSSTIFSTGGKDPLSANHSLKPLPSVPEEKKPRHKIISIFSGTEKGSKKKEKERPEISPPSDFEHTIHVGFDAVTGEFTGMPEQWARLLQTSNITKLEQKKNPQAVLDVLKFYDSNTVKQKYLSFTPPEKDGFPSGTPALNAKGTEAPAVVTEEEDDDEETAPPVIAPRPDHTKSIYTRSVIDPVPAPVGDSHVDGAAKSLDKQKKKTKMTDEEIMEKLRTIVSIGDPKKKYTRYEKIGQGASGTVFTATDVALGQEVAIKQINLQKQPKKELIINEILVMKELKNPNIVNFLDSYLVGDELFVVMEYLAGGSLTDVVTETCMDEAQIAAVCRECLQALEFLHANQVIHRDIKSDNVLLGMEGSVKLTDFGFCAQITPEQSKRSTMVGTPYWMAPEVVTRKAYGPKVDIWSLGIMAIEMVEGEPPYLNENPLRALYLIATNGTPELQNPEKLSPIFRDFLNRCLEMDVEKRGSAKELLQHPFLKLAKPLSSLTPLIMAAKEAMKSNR
# Chain of MSK1/RPS6KA5 (O75582 whole entry): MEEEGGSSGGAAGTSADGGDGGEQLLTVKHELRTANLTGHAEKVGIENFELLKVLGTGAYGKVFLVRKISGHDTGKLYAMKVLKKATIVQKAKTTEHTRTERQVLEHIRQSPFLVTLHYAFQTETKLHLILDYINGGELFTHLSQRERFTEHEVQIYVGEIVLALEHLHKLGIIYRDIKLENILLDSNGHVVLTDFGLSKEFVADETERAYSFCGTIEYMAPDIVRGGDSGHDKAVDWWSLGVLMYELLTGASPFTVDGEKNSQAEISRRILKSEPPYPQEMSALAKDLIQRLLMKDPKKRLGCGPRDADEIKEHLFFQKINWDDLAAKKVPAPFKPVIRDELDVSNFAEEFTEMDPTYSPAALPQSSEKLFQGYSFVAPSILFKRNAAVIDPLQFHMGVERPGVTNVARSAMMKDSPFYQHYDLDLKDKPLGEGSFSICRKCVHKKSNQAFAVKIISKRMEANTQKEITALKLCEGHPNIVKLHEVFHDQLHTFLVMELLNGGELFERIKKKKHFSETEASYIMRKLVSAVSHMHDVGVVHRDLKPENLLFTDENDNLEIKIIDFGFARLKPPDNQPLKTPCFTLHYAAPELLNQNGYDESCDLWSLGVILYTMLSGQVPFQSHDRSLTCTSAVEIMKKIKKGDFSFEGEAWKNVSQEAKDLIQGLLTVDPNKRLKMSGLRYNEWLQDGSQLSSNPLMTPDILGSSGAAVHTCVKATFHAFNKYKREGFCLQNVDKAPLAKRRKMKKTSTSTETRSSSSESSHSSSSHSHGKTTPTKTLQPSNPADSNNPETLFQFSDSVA
# Chain of SSTK/TSSK6 (Q9BXA6 whole entry): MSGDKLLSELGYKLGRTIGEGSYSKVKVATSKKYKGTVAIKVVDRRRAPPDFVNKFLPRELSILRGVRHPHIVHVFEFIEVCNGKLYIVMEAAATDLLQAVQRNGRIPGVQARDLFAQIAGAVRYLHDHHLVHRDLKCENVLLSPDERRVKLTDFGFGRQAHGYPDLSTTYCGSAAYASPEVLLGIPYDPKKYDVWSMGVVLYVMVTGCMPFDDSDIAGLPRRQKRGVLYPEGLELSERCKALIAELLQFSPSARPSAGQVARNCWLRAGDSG
# Chain of ERK1 (P27361 whole entry): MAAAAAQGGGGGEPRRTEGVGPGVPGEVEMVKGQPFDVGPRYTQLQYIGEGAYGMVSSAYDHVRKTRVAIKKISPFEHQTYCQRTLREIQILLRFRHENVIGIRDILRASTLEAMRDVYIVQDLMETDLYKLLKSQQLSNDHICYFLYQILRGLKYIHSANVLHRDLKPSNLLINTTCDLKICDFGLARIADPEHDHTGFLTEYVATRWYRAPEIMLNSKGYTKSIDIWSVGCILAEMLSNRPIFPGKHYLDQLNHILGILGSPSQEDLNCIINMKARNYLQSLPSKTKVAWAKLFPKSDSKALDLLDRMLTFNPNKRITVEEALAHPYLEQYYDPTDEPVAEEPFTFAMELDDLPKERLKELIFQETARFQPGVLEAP
# Chain of CDK9/cyclin T2 (P50750 whole entry): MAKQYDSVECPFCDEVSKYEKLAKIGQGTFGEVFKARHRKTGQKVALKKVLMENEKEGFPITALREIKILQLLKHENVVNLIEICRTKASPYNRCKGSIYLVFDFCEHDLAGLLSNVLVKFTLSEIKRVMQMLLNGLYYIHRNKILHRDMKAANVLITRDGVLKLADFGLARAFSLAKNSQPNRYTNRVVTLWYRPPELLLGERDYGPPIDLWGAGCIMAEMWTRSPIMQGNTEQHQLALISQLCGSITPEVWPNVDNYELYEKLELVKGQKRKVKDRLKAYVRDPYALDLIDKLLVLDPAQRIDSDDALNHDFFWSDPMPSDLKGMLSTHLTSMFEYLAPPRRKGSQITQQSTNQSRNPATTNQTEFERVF
# Chain of CDK9/cyclin T2 (O60583 whole entry partner): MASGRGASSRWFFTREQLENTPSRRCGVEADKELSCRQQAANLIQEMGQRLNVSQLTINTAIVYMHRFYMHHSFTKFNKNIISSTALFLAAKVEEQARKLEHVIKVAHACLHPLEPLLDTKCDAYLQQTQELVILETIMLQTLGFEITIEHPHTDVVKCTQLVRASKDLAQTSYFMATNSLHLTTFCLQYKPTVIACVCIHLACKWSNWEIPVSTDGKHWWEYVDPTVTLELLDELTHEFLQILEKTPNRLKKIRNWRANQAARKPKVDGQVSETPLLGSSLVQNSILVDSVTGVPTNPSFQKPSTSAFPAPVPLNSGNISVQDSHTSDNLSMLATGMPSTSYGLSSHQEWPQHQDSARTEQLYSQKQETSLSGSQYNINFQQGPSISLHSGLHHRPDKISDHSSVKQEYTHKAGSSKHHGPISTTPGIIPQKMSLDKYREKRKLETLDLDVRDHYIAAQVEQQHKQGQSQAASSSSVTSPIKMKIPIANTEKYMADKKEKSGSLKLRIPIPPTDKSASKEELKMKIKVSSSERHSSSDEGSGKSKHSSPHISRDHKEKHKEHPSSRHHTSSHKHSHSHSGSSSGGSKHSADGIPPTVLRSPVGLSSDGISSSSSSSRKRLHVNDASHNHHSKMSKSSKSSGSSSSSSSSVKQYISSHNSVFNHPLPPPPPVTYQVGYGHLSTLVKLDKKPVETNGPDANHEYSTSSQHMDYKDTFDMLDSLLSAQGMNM
SMILES,remaining activity at 1 µM [1],% enzyme activity [2],% enzyme activity [3],remaining activity at 1 µM [4],remaining activity at 1 µM [5],% enzyme activity [6],% enzyme activity [7],remaining activity at 1 µM [8],% enzyme activity [9],% enzyme activity [10]
"COc1cc(-c2cncc(-c3ccc(N4CCN(C)CC4)cc3)c2C)cc(F)c1C(N)=O [Compound 26a, 2-Fluoro-6-methoxy-4-(4-methyl-5-(4-(4-methylpiperazin-1-yl)phenyl)pyridin-3-yl)benzamide]",91.8%,94.26%,100.35%,110%,105%,94.73%,99.00%,87.1%,90.26%,95.51%
"COc1cc(-c2cncc(-c3ccc(N4C[C@@H](C)N(C)[C@@H](C)C4)cc3)c2C)cc(F)c1C(N)=O [Compound 26c, 2-Fluoro-6-methoxy-4-(4-methyl-5-(4-((3R,5S)-3,4,5-trimethylpiperazin-1-yl)phenyl)pyridin-3-yl)benzamide]",103%,100.95%,103.95%,98.2%,101%,94.56%,100.35%,90.5%,93.75%,98.82%
